Experimental data as given in ChEMBL document CHEMBL4507289, “Data for DCP probe GSM1” (2021).

Legend:
[1] = target: Discoidin domain-containing receptor 2 (Homo sapiens) (UniProt Q16832); details: Compound concentration 1000.0 nM
[2] = target: Mitogen-activated protein kinase 11 (Homo sapiens) (UniProt Q15759); details: Compound concentration 1000.0 nM
[3] = target: Dual serine/threonine and tyrosine protein kinase (Homo sapiens) (UniProt Q6XUX3); details: Compound concentration 1000.0 nM
[4] = target: Insulin receptor (Homo sapiens) (UniProt P06213); details: Compound concentration 1000.0 nM
[5] = target: Serine/threonine-protein kinase TAO2 (Homo sapiens) (UniProt Q9UL54); details: Compound concentration 1000.0 nM
[6] = tested on: Epidermal growth factor receptor (Homo sapiens), P00533 [L861Q]; details: Compound concentration 1000.0 nM
[7] = target: GABA-A receptor; anion channel (Rattus norvegicus) (UniProt O09028+P15431+P18506+P18508+P19969+P20236+P23574+P23576+P28471+P28473+P30191+P62813+P63079+P63138+Q91ZM7+Q9ES14); details: Compound concentration 10.0 uM
[8] = target: Histamine H3 receptor (Homo sapiens) (UniProt Q9Y5N1); details: Compound concentration 10.0 uM
[9] = target: Dual specificity mitogen-activated protein kinase kinase 7 (Homo sapiens) (UniProt O14733); details: Compound concentration 1000.0 nM
[10] = target: Kappa-type opioid receptor (Homo sapiens) (UniProt P41145); details: Compound concentration 10.0 uM
[11] = target: D(3) dopamine receptor (Homo sapiens) (UniProt P35462); details: Compound concentration 10.0 uM
[12] = target: Histamine H4 receptor (Homo sapiens) (UniProt Q9H3N8); details: Compound concentration 10.0 uM
[13] = tested on: Tyrosine-protein kinase ABL1 (Homo sapiens), P00519 [Y253F]; details: Compound concentration 1000.0 nM
[14] = target: Ephrin type-B receptor 2 (Homo sapiens) (UniProt P29323); details: Compound concentration 1000.0 nM
[15] = target: Serine/threonine-protein kinase D3 (Homo sapiens) (UniProt O94806); details: Compound concentration 1000.0 nM
[16] = target: Serine/threonine-protein kinase Nek10 (Homo sapiens) (UniProt Q6ZWH5); details: Compound concentration 1000.0 nM
[17] = target: Phosphatidylinositol 4-kinase beta (Homo sapiens) (UniProt Q9UBF8); details: Compound concentration 1000.0 nM
[18] = target: Ribosomal protein S6 kinase alpha-3 (Homo sapiens) (UniProt P51812); details: Compound concentration 1000.0 nM
[19] = target: Casein kinase I isoform gamma-1 (Homo sapiens) (UniProt Q9HCP0); details: Compound concentration 1000.0 nM
[20] = target: Mitogen-activated protein kinase 7 (Homo sapiens) (UniProt Q13164); details: Compound concentration 1000.0 nM
[21] = target: Serine/threonine-protein kinase Sgk3 (Homo sapiens) (UniProt Q96BR1); details: Compound concentration 1000.0 nM
[22] = target: Rhodopsin kinase GRK1 (Homo sapiens) (UniProt Q15835); details: Compound concentration 1000.0 nM
[23] = target: Sigma non-opioid intracellular receptor 1 (Homo sapiens) (UniProt Q99720); details: Compound concentration 10.0 uM
[24] = target: 5-hydroxytryptamine receptor 2C (Homo sapiens) (UniProt P28335); details: Compound concentration 10.0 uM
[25] = target: Myosin light chain kinase 2, skeletal/cardiac muscle (Homo sapiens) (UniProt Q9H1R3); details: Compound concentration 1000.0 nM
[26] = target: Alpha-2A adrenergic receptor (Homo sapiens) (UniProt P08913); details: Compound concentration 10.0 uM
[27] = target: Calcium/calmodulin-dependent protein kinase type 1 (Homo sapiens) (UniProt Q14012); details: Compound concentration 1000.0 nM
[28] = target: Serine/threonine-protein kinase MAK (Homo sapiens) (UniProt P20794); details: Compound concentration 1000.0 nM
[29] = target: Inhibitor of nuclear factor kappa-B kinase subunit epsilon (Homo sapiens) (UniProt Q14164); details: Compound concentration 1000.0 nM
[30] = target: Cyclin-dependent kinase 7 (Homo sapiens) (UniProt P50613); details: Compound concentration 1000.0 nM
[31] = target: cAMP-dependent protein kinase catalytic subunit alpha (Homo sapiens) (UniProt P17612); details: Compound concentration 1000.0 nM
[32] = target: Mitogen-activated protein kinase kinase kinase kinase 3 (Homo sapiens) (UniProt Q8IVH8); details: Compound concentration 1000.0 nM
[33] = target: Serine/threonine-protein kinase pim-1 (Homo sapiens) (UniProt P11309); details: Compound concentration 1000.0 nM
[34] = tested on: Tyrosine-protein kinase ABL1 (Homo sapiens), P00519 [F317L]; details: Compound concentration 1000.0 nM
[35] = target: 5'-AMP-activated protein kinase catalytic subunit alpha-2 (Homo sapiens) (UniProt P54646); details: Compound concentration 1000.0 nM
[36] = target: Serine/threonine-protein kinase N1 (Homo sapiens) (UniProt Q16512); details: Compound concentration 1000.0 nM
[37] = target: Protein-tyrosine kinase 6 (Homo sapiens) (UniProt Q13882); details: Compound concentration 1000.0 nM
[38] = target: Tyrosine-protein kinase ABL2 (Homo sapiens) (UniProt P42684); details: Compound concentration 1000.0 nM
[39] = target: Serine/threonine-protein kinase MRCK gamma (Homo sapiens) (UniProt Q6DT37); details: Compound concentration 1000.0 nM
[40] = target: Cyclin-dependent kinase 11A (Homo sapiens) (UniProt Q9UQ88); details: Compound concentration 1000.0 nM
[41] = target: Ephrin type-A receptor 6 (Homo sapiens) (UniProt Q9UF33); details: Compound concentration 1000.0 nM
[42] = target: Serine/threonine-protein kinase Nek7 (Homo sapiens) (UniProt Q8TDX7); details: Compound concentration 1000.0 nM
[43] = target: Serine/threonine-protein kinase Nek3 (Homo sapiens) (UniProt P51956); details: Compound concentration 1000.0 nM
[44] = target: Dual specificity tyrosine-phosphorylation-regulated kinase 1A (Homo sapiens) (UniProt Q13627); details: Compound concentration 1000.0 nM

Sequence of Myosin light chain kinase 2, skeletal/cardiac muscle (Homo sapiens) (Q9H1R3 whole entry): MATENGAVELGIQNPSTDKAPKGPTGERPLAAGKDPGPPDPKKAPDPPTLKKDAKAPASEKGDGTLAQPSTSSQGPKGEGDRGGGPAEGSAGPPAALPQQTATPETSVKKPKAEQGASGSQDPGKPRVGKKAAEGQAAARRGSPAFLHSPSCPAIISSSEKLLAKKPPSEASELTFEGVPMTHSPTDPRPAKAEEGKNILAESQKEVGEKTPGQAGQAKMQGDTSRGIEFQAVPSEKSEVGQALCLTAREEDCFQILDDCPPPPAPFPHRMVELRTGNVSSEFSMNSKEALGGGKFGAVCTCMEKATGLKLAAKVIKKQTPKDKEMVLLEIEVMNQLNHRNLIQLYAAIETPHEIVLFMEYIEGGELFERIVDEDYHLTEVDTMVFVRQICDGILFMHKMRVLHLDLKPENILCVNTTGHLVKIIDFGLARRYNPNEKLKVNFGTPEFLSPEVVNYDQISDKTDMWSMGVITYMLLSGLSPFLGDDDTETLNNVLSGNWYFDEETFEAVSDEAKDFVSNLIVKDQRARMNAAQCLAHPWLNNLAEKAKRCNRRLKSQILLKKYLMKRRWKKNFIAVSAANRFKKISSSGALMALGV
Sequence of Mitogen-activated protein kinase 11 (Homo sapiens) (Q15759 whole entry): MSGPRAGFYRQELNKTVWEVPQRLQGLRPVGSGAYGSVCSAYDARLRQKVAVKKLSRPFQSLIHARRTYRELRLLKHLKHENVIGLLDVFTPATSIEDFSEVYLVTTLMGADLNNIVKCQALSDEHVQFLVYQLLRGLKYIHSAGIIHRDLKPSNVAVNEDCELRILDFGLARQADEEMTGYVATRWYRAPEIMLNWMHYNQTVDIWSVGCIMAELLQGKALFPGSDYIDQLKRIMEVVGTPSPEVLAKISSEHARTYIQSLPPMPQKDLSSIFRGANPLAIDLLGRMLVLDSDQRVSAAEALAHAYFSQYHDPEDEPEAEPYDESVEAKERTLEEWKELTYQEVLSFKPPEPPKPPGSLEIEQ
Sequence of Serine/threonine-protein kinase Nek3 (Homo sapiens) (P51956 whole entry): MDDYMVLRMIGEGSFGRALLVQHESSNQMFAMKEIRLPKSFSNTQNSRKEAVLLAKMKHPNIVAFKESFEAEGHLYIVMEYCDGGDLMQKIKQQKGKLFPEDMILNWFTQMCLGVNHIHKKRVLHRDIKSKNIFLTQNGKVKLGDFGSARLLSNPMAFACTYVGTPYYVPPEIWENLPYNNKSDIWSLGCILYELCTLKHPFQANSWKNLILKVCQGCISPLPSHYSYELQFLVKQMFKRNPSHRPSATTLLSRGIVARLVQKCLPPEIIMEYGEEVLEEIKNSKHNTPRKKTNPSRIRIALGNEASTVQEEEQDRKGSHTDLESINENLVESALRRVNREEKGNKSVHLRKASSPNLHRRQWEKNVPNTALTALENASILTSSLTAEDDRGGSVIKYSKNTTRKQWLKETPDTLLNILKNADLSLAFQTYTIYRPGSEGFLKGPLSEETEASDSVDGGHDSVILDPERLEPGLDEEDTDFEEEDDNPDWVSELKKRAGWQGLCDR
Sequence of Ribosomal protein S6 kinase alpha-3 (Homo sapiens) (P51812 whole entry, canonical isoform): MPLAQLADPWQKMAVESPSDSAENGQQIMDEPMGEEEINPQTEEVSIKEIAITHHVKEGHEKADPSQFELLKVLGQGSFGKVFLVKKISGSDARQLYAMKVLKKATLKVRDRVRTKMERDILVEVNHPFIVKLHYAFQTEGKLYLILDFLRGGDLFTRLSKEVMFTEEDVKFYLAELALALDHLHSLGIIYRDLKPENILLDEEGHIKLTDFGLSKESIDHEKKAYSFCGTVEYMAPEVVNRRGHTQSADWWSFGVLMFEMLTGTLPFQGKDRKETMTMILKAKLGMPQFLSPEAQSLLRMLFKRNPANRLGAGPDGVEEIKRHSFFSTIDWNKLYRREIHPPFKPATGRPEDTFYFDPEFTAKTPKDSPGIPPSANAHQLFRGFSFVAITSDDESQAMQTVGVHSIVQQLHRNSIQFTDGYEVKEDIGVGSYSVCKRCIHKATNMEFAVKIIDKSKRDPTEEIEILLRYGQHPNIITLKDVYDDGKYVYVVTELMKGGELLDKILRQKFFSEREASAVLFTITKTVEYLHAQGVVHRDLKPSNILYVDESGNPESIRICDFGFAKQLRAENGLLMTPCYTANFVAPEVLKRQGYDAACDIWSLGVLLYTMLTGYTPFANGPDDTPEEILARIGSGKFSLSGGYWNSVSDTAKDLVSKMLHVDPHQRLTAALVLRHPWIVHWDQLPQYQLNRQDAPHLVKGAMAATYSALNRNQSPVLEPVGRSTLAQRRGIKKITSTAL
Sequence of Dual serine/threonine and tyrosine protein kinase (Homo sapiens) (Q6XUX3 whole entry): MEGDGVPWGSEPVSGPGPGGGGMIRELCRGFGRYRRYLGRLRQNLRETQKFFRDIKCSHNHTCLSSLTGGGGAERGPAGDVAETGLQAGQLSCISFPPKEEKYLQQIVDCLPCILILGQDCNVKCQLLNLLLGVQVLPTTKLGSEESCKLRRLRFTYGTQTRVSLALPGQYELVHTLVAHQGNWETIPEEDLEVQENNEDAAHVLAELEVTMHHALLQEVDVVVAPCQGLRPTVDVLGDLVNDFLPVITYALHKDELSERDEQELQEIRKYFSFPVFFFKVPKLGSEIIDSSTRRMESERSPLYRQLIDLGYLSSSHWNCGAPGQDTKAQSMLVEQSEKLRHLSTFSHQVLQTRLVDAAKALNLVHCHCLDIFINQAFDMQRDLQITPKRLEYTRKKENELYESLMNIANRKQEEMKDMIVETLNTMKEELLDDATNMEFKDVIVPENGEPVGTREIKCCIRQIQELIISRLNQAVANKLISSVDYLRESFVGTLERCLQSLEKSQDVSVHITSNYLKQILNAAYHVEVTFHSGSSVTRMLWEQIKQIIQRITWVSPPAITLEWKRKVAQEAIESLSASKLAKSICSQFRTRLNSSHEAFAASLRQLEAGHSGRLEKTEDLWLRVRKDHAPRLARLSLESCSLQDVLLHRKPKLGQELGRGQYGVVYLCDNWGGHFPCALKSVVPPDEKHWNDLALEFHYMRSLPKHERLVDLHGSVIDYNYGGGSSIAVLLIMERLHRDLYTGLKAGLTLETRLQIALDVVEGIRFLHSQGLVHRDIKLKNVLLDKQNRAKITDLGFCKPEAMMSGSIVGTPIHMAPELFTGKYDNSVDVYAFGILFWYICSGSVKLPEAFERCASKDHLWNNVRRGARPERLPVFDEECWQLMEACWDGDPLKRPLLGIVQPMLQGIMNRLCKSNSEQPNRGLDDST
Sequence of Serine/threonine-protein kinase Sgk3 (Homo sapiens) (Q96BR1 whole entry): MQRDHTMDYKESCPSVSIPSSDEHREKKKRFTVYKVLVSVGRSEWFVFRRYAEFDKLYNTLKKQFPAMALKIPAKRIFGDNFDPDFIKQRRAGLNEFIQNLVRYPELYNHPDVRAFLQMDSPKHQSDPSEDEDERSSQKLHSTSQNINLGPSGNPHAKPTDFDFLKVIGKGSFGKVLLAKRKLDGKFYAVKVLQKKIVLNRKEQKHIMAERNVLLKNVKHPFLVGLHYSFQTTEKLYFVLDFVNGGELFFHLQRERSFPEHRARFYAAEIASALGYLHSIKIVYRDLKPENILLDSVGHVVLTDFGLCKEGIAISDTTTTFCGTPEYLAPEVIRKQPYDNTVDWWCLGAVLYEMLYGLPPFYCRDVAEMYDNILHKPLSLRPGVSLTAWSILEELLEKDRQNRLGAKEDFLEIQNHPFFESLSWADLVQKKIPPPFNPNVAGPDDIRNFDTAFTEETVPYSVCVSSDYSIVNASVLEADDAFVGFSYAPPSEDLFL
Sequence of Serine/threonine-protein kinase Nek10 (Homo sapiens) (Q6ZWH5 whole entry): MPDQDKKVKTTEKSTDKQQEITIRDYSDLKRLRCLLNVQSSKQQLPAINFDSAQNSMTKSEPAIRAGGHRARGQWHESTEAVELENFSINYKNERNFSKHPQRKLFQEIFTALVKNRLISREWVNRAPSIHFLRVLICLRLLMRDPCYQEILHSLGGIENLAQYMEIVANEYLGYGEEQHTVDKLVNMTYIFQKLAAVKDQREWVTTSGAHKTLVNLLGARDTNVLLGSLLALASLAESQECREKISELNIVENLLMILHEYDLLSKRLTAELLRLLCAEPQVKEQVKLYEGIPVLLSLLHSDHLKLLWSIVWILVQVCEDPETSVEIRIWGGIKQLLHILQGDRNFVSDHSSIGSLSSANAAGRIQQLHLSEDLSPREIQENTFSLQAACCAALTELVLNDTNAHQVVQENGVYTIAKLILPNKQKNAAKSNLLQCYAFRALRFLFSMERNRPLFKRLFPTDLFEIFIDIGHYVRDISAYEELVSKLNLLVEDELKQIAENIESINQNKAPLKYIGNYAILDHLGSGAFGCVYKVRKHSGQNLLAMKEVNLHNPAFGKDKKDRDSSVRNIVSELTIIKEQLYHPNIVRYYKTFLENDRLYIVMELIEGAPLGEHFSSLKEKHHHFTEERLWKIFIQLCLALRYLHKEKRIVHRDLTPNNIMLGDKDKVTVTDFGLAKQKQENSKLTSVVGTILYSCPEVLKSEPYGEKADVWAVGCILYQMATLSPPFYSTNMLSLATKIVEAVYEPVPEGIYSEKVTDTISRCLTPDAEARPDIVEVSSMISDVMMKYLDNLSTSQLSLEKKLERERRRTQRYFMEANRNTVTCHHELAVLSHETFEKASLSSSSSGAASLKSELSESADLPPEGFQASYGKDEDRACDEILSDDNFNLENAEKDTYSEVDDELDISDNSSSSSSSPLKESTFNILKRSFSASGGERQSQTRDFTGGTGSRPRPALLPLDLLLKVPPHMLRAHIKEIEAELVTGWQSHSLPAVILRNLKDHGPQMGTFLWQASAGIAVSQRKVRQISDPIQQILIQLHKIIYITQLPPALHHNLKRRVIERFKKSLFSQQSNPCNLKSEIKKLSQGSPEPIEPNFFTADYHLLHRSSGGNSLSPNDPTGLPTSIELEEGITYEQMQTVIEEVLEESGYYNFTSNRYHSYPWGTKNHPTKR
Sequence of Sigma non-opioid intracellular receptor 1 (Homo sapiens) (Q99720 whole entry): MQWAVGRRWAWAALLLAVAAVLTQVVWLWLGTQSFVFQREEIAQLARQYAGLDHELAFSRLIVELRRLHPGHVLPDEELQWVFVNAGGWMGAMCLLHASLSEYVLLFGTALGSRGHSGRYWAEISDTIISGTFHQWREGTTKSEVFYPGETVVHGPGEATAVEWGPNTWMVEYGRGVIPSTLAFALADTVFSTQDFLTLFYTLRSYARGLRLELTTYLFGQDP

COc1cc(-c2cn([C@H]3CCc4ccccc4N(CC(F)(F)F)C3=O)nn2)ccc1-n1ccc(C)n1
inactive: residual activity [1] 99% | residual activity [2] 82% | residual activity [3] 100% | residual activity [4] 69% | residual activity [5] 100% | residual activity [6] 100% | inhibition [7] 0.92% | inhibition [8] 20.9% | residual activity [9] 100% | inhibition [10] 13.6% | inhibition [11] 22% | inhibition [12] 9.63% | residual activity [13] 87% | residual activity [14] 100% | residual activity [15] 100% | residual activity [16] 81% | residual activity [17] 87% | residual activity [18] 97% | residual activity [19] 77% | residual activity [20] 100% | residual activity [21] 84% | residual activity [22] 80% | inhibition [23] 23.2% | inhibition [24] 16.9% | residual activity [25] 73% | inhibition [26] 22.2% | residual activity [27] 100% | residual activity [28] 99% | residual activity [29] 68% | residual activity [30] 87% | residual activity [31] 100% | residual activity [32] 100% | residual activity [33] 100% | residual activity [34] 57% | residual activity [35] 71% | residual activity [36] 100% | residual activity [37] 100% | residual activity [38] 100% | residual activity [39] 100% | residual activity [40] 97% | residual activity [41] 98% | residual activity [42] 100% | residual activity [43] 100% | residual activity [44] 83%

COc1cc(-c2cn([C@H]3CCc4c(F)cccc4N(CC(F)(F)F)C3=O)nn2)ccc1-n1cnc(C)c1
inactive: residual activity [1] 100% | residual activity [2] 90% | residual activity [3] 100% | residual activity [4] 90% | residual activity [5] 100% | residual activity [6] 100% | inhibition [7] 28.6% | inhibition [8] 23.3% | residual activity [9] 100% | inhibition [10] 7.19% | inhibition [11] 3.33% | inhibition [12] -2.49% | residual activity [13] 100% | residual activity [14] 100% | residual activity [15] 100% | residual activity [16] 100% | residual activity [17] 79% | residual activity [18] 100% | residual activity [19] 86% | residual activity [20] 80% | residual activity [21] 100% | residual activity [22] 99% | inhibition [23] 26.6% | inhibition [24] 27.6% | residual activity [25] 100% | inhibition [26] 35% | residual activity [27] 100% | residual activity [28] 100% | residual activity [29] 100% | residual activity [30] 100% | residual activity [31] 100% | residual activity [32] 100% | residual activity [33] 96% | residual activity [34] 78% | residual activity [35] 100% | residual activity [36] 96% | residual activity [37] 100% | residual activity [38] 100% | residual activity [39] 100% | residual activity [40] 100% | residual activity [41] 100% | residual activity [42] 100% | residual activity [43] 86% | residual activity [44] 84%
